Where two headings read alike, the source gives them in different places.
Columns and labels:
[1] = ABTS radical cation decolorization assay; conditions: for increase of antioxidant activity in ABTS test, biotransformation product vs substrate: 8-hydroxylated product relative to the substrate from which it was obtained; for TEAC ABTS: 6 min incubation, 734 nm, mean ± SD
Experimental: (§1) The antioxidant capacity of flavonoids was measured in three separate tests: ABTS, DPPH, and ferric ion reducing antioxidant power (FRAP) assays (ABTS, DPPH, and FRAP reagents from Sigma-Aldrich). All tested compounds were dissolved in DMSO. All determinations were performed in triplicate. Standard curves were prepared for all assays using different concentrations of Trolox (6-hydroxy-2,5,7,8-tetramethylchroman-2-carboxylic acid) (Sigma-Aldrich). Trolox is a water-soluble analogue of vitamin E with high antioxidant activity, commonly used as a control and a reference in studies of antioxidant activity. The results were expressed as the equivalent of μmol Trolox per μmol of the test compound. The absorbance was measured using a UV-2401 PC spectrophotometer (Shimadzu, Kyoto, Japan). Concentrations of the tested samples were in the range from 50 µg/mL to 10 mg/mL.
The radical cation scavenging capacity of the tested compounds was examined against ABTS^+ (2,2’-azino-bis(3-ethylbenzo-thiazoline-6-sulfonic acid) according to the procedure described by Re et al. with some modifications. The test sample (30 μL) of known concentration was mixed in a polystyrene cuvette with 3 mL of ABTS solution with a measured absorption of 0.700 at a wavelength of λ = 734 nm. After 6 min of incubation, the absorption of samples was recorded. The ABTS reagent was freshly prepared before each experiment.

[2] = system: HLMEC (lung microvascular endothelial cells); test: Antiproliferative activity in vitro, SRB assay; assay type: cell-based, human; conditions: Homo sapiens, Endothelial cell, read-out: IC50 ± SD HLMEC
Experimental: (§2) The antiproliferative studies were performed in vitro using human cancer cell lines—MV-4-11 (biphenotypic B myelomonocytic leukemia), MCF7 (breast carcinoma), LoVo (colon cancer), LoVo/DX (colon cancer doxorubicin-resistant), and DU 145 (prostate cancer)—and normal human cell lines—MCF 10A (breast cells) and HLMEC (lung microvascular endothelial cells). The cell lines MV-4-11, LoVo, DU 145, and MCF 10A were obtained from the American Type Culture Collection (Rockville, Maryland, USA), MCF7 from the European Collection of Authenticated Cell Cultures (ECACC, Salisbury, UK), LoVo/DX courtesy of Professor E. Borowski (Technical University of Gdansk, Poland), and HLMECs (which had been already immortalized by transfection with pSV3-neoplasmid containing large T-antigen gene) were the kind gift of Professor Claudine Kieda (Center for Molecular Biophysics, Orleans, France). The cell lines are being maintained in the Hirszfeld Institute of Immunology and Experimental Therapy, Polish Academy of Sciences (HIIET, PAS), Wroclaw, Poland. All cell lines were grown at 37 °C with 5% CO2 humidified atmosphere. The MV-4-11 cells were cultured in RPMI 1640 medium with GlutaMAX (Gibco, Scotland, UK), supplemented with 1 mM sodium pyruvate and 10% fetal bovine serum (both from Sigma-Aldrich, Poznan, Poland). The MCF7 cells were cultured in Eagle medium (HIIET, PAS, Wroclaw, Poland) supplemented with 2 mM L-glutamine, 10% fetal bovine serum, 1% nonessential amino acid solution, and 0.8 mg/L of insulin (all from Sigma-Aldrich, Poznan, Poland). The LoVo and LoVo/DX cells were cultured in a 1:1 (v/v) mixture of RPMI 1640 and Opti-MEM (both HIIET, PAS, Wroclaw, Poland), supplemented with 1 mM sodium pyruvate, 2 mM L-glutamine, and 5% fetal bovine serum (all from Sigma-Aldrich, Poznan, Poland). For LoVo/DX cells, additionally 10 µg/100 mL of doxorubicin (Accord Healthcare) was added to the medium. DU 145 cells were cultured in Eagle medium (HIIET, PAS, Wroclaw, Poland) supplemented with 1 mM sodium pyruvate, 4 mM L-glutamine, and 10% fetal bovine serum (all from Sigma-Aldrich, Poznan, Poland). The MCF 10A cells were cultured in the F-12 nutrient mixture (Gibco, Scotland, UK), supplemented with 5% horse serum (Gibco, Scotland, UK), 0.05 μg/mL of cholera toxin (Vibrio cholerae), 0.5 μg/mL of hydrocortisone, 10 μg/mL of insulin, and 20 ng/mL of human epidermal growth factor (all from Sigma-Aldrich, Poznan, Poland). The HLMEC cells were cultured in the RPMI 1640 medium (HIIET, PAS, Wroclaw, Poland) with the addition of 2 mM L-glutamine (Sigma-Aldrich, Poznan, Poland) and 10% fetal bovine serum (GE Healthcare). All culture media were supplemented with 100 units/mL penicillin (Polfa Tarchomin S.A., Warsaw, Poland) and 100 µg/mL streptomycin (Sigma-Aldrich, Poznan, Poland). Twenty-four hours before addition of the tested agents, the cells were plated in 96-well plates (Sarstedt, Germany) at a density of 1 × 10^4 (1 × 10^3 for HLMEC and 0.75 × 10^4 for MCF7) cells per well in 100 μL of culture medium.
(§3) Tested compounds were dissolved in DMSO and then diluted in a 1:1 (v/v) mixture of RPMI 1640 (HIIET, PAS, Wroclaw, Poland) and Opti-MEM (Gibco, Scotland, UK) medium supplemented with 2 mM L-glutamine (Sigma-Aldrich, Poznan, Poland), 5% fetal bovine serum (GE Healthcare), 100 units/mL penicillin (Polfa Tarchomin S.A., Warsaw, Poland), and 100 µg/mL streptomycin (Sigma-Aldrich, Poznan, Poland). The antiproliferative effects of the flavonoids were examined after 72 h of exposure of the cultured cells to varying concentrations of the tested agents (from 0.1 to 100 μg/mL) using the MTT (for MV-4-11 cells) or SRB assay described below. Cisplatin (chemotherapy drug used to treat a number of cancers) was used as a positive control. The results are presented as an inhibitory concentration 50 (IC50), which is the concentration of the tested agent that inhibits proliferation of the cell population by 50%. IC50 values for each experiment were calculated separately. […]

[3] = FRAP (ferric ion reducing antioxidant power) assay; conditions: for TEAC FRAP: 10 min, 593 nm, mean ± SD
Experimental: as §1
The FRAP method is based on measuring the ability of antioxidants to reduce ferric 2,4,6-tris(2-pyridyl)-1,3,5-triazine [Fe(III)-TPTZ] in the blue colored ferrous form, which absorbs light at λ = 593 nm. The Fe(III)-TPTZ reagent was prepared as a mixture of acetate buffer (pH 3.6), 10 mM TPTZ in 40 mM HCl, and 20 mM FeCl3 in the ratio of 10:1:1 (v/v/v). The FRAP reagent was freshly prepared before each experiment. The samples (0.1 mL) were mixed in polystyrene cuvettes with 3 mL of ferric complex and 0.9 mL of distilled water. The absorbance was measured after 10 min at λ = 593 nm.

[4] = DPPH free radical scavenging activity assay; conditions: for increase of antioxidant activity in DPPH test, biotransformation product vs substrate: 8-hydroxylated product relative to the substrate from which it was obtained; for TEAC DPPH: 10 min, 517 nm, mean ± SD
Experimental: as §1
The DPPH (2,2-diphenyl-1-picrylhydrazyl) radical scavenging activity of samples was determined according to the method described by Yen and Chen with some modifications. Samples (0.1 mL) of known concentration were mixed in polystyrene cuvettes with 2 mL of 0.04 mM DPPH in ethanol and 0.4 mL of ethanol. The absorbance was measured after 10 min at λ = 517 nm. The DPPH reagent was freshly prepared before each experiment.

[5] = system: MV-4-11 (biphenotypic B myelomonocytic leukemia); test: Antiproliferative activity in vitro, MTT assay; assay type: cell-based, human; conditions: Homo sapiens, MV4-11, 72 h exposure, read-out: IC50 ± SD MV-4-11
[6] = system: LoVo/DX (colon cancer doxorubicin-resistant); test: Antiproliferative activity in vitro, SRB assay; assay type: cell-based, human; conditions: Homo sapiens, LoVo/DX, 72 h exposure, read-out: IC50 ± SD LoVo/DX
MCF7 (breast carcinoma) = test: Antiproliferative activity in vitro, SRB assay; assay type: cell-based, human; conditions: Homo sapiens, read-out: IC50 ± SD MCF7
Experimental: as §2, §3

LoVo (colon cancer) = test: Antiproliferative activity in vitro, SRB assay; assay type: cell-based, human; conditions: Homo sapiens, LoVo, 72 h, read-out: IC50 ± SD LoVo
Experimental: as §2, §3

DU 145 (prostate cancer) = test: Antiproliferative activity in vitro, SRB assay; assay type: cell-based, human; conditions: Homo sapiens, DU-145, 72 h, read-out: IC50 ± SD DU 145
MCF 10A (breast cells) = test: Antiproliferative activity in vitro, SRB assay; assay type: cell-based, human; conditions: Homo sapiens, MCF-10A, read-out: IC50 ± SD MCF 10A
Experimental: as §2, §3

[7] = 72 h exposure, SRB, normal cell line

IC50 [5] [µM] | IC50 [6] [µM] | IC50 (MCF7 (breast carcinoma); MCF7, 72 h exposure, SRB) [µM] | IC50 (LoVo (colon cancer); 72 h exposure, SRB) [µM] | Structure (SMILES) | increase of antioxidant activity in ABTS test, biotransformation product vs substrate [1] | TEAC ABTS [1] | IC50 [2, 7] [µM] | TEAC FRAP [3] | increase of antioxidant activity in DPPH test, biotransformation product vs substrate [4] | TEAC DPPH [4] | increase of antioxidant activity in FRAP test, biotransformation product vs substrate ([3]; 8-hydroxylated product relative to the substrate from which it was obtained) [fold] | IC50 (DU 145 (prostate cancer)) [µM] | IC50 (MCF7 (breast carcinoma); MCF7, 72 h) [µM] | IC50 ([2]; 72 h) [µM] | IC50 (LoVo (colon cancer)) [µM] | IC50 (MCF 10A (breast cells); 72 h) [µM] | IC50 (MCF 10A (breast cells); [7]) [µM]
8.39 ± 3.53 | 13.4 ± 3.02 | 123 ± 37.4 | 15 ± 2.2 | COc1ccc(-c2cc(=O)c3c(O)cc(O)cc3o2)cc1O [Compound 4, diosmetin] | – | 1.712 ± 0.041 µmol trolox per µmol of tested | 14.4 ± 1.95 | – | – | 0.008 ± 0.001 µmol trolox per µmol of tested | – | – | – | – | – | – | –
– | – | – | 224 ± 15.3 | COc1ccc(-c2cc(=O)c3c(O)cc(O)c(O)c3o2)cc1O [Compound 12, 8-Hydroxydiosmetin] | – | 13.405 ± 0.826 µmol trolox per µmol of tested | 108 ± 15.4 | 11.340 ± 0.203 µmol trolox per µmol of tested | – | 8.496 ± 0.040 µmol trolox per µmol of tested | – | – | – | – | – | – | –
15.1 ± 1.99 | 13 ± 1.29 | 75 ± 26.1 | 28 ± 8.17 | O=c1cc(-c2ccccc2)oc2cc(O)cc(O)c12 [Compound 1, Chrysin] | – | 0.084 ± 0.011 µmol trolox per µmol of tested | 22.9 ± 2.02 | – | – | 0.004 ± 0.001 µmol trolox per µmol of tested | – | – | – | – | – | – | 27 ± 12
– | – | – | 238 ± 35.4 | O=c1cc(-c2ccc(O)c(O)c2)oc2c(O)c(O)cc(O)c12 [Compound 11, 8-hydroxyluteolin] | more than twice as active | 34.450 ± 1.016 µmol trolox per µmol of tested | 106 ± 1.72 | 36.895 ± 0.432 µmol trolox per µmol of tested | – | 13.208 ± 0.080 µmol trolox per µmol of tested | – | – | – | – | – | – | –

Further lines, the compound ahead of its results:

Structure (SMILES) | IC50 [5] [µM] | IC50 [6] [µM] | IC50 (MCF7 (breast carcinoma); MCF7, 72 h exposure, SRB) [µM] | IC50 (LoVo (colon cancer); 72 h exposure, SRB) [µM] | increase of antioxidant activity in ABTS test, biotransformation product vs substrate [1] | TEAC ABTS [1] | IC50 [2, 7] [µM] | TEAC FRAP [3] | increase of antioxidant activity in DPPH test, biotransformation product vs substrate [4] | TEAC DPPH [4] | increase of antioxidant activity in FRAP test, biotransformation product vs substrate ([3]; 8-hydroxylated product relative to the substrate from which it was obtained) [fold] | IC50 (DU 145 (prostate cancer)) [µM] | IC50 (MCF7 (breast carcinoma); MCF7, 72 h) [µM] | IC50 ([2]; 72 h) [µM] | IC50 (LoVo (colon cancer)) [µM] | IC50 (MCF 10A (breast cells); 72 h) [µM] | IC50 (MCF 10A (breast cells); [7]) [µM]
O=c1cc(-c2ccccc2)oc2c(O)c(O)cc(O)c12 [Compound 9, 8-hydroxychrysin] | – | – | – | – | about 170 fold | 14.173 ± 1.591 µmol trolox per µmol of tested | 120 ± 2.24 | 8.900 ± 0.582 µmol trolox per µmol of tested | about 2000 fold | 8.038 ± 0.061 µmol trolox per µmol of tested | – | – | – | – | – | – | –
O=C1CC(c2ccccc2)Oc2c(O)c(O)cc(O)c21 (stereo not shown) [Compound 13, 8-hydroxypinocembrin] | – | – | – | – | about 130 fold | 20.763 ± 0.939 µmol trolox per µmol of tested | 148 ± 13.4 | 12.861 ± 0.313 µmol trolox per µmol of tested | about 1800 fold | 9.164 ± 0.097 µmol trolox per µmol of tested | – | – | – | – | – | – | –
COc1ccc(C2CC(=O)c3c(O)cc(O)c(O)c3O2)cc1O (stereo not shown) [Compound 18, 8-hydroxyhesperetin] | – | – | 135 ± 20.3 | – | more than twice as active | 31.187 ± 1.353 µmol trolox per µmol of tested | 97.1 ± 5.15 | 25.260 ± 0.909 µmol trolox per µmol of tested | 144 fold | 14.150 ± 0.229 µmol trolox per µmol of tested | 6 | – | – | – | – | – | –
O=C1C[C@@H](c2ccc(O)c(O)c2)Oc2cc(O)cc(O)c21 [Compound 7, eriodictyol] | – | 99.2 ± 12.5 | – | – | – | 13.988 ± 0.251 µmol trolox per µmol of tested | – | 10.619 ± 0.319 µmol trolox per µmol of tested | – | 9.582 ± 0.315 µmol trolox per µmol of tested | – | 121 ± 18.4 | 151 ± 9.31 | 25.8 ± 6.71 | 101 ± 10.9 | 147 ± 36.2 | –

From article PMC6680932, “Structure–Antioxidant–Antiproliferative Activity Relationships of Natural C7 and C7–C8 Hydroxylated Flavones and Flavanones” (Antioxidants, 2019)
